Source: patent publication US20260138985A1, “Azepino-Indoles for the Treatment of Neurological and Psychiatric Disorders” (Terran Biosciences Inc., priority 2021, published 2026)

Experiments:
5-HT2B receptor = target: T1, 5-HT2B receptor (Homo sapiens, UniProt P41595); assay: Calcium mobilization assay, agonist format, 5-HT2B receptor; type: cell-based; conditions: read-out: 5-HT2B agonist Efficacy @ 5 µM
T1 construct: host or cells: unnamed cell lines
Protocol: (§1) Protocol—in vitro testing at select 5-hydroxytryptamine (5-HT; serotonin) receptors was conducted.
(§2) • 1. Cell lines were expanded from freezer stocks according to standard procedures. • 2. Cells were seeded in a total volume of 20 μL into black-walled, clear-bottom, Poly-D-lysine coated 384-well microplates and incubated at 37° C. for the appropriate time prior to testing.
(§3) • 1. Assays were performed in 1×Dye Loading Buffer consisting of 1× Dye, 1× Additive A and 2.5 mM Probenecid in HBSS/20 mM Hepes. Probenicid was prepared fresh. • 2. Cells were loaded with dye prior to testing. Media was aspirated from cells and replaced with 20 μL Dye Loading Buffer. • 3. Cells were incubated for 30-60 minutes at 37° C.
(§4) • 1. For agonist determination, cells were incubated with sample to induce response. • 2. After dye loading, cells were removed from the incubator and 10 μL HBSS/20 mM Hepes was added. 3× vehicle was included in the buffer when performing agonist dose curves to define • the EC80 for subsequent antagonist assays. Cells were incubated for 30 minutes at room temperature in the dark to equilibrate plate temperature. • 3. Intermediate dilution of sample stocks was performed to generate 4× sample in assay buffer. • 4. Compound agonist activity was measured on a FLIPR Tetra (MDS). Calcium mobilization was monitored for 2 minutes and 10 μL 4× sample in HBSS/20 mM Hepes was added to the cells 5 seconds into the assay.
(§5) • 1. Compound activity was analyzed using CBIS data analysis suite (ChemInnovation, CA). • 2. For agonist mode assays, percentage activity is calculated using the following formula: % Activity=100%×(mean RFU of test sample−mean RFU of vehicle control)/(mean MAX RFU control ligand −mean RFU of vehicle control). • 3. For positive allosteric mode assays, percentage modulation was calculated using the following formula: % Modulation=100%×((mean RFU of test sample−mean RFU of EC20 control)/(mean RFU of MAX control ligand −mean RFU of EC20 control)). • 4. For antagonist and negative allosteric modulation mode assays, percentage inhibition is calculated using the following formula: % Inhibition=100%×(1−(mean RFU of test sample−mean RFU of vehicle control)/(mean RFU of EC80 control−mean RFU of vehicle control)).
(§6) As discussed above, agonism, or partial agonism, of the 5-HT2A receptor (also known as positive allosteric modulation, or 5-HT2A modulation) is useful for the treatment of neurological and psychiatric disorders. For example, 5-HT2A agonism has been correlated with the promotion of neural plasticity (Ly et al., 2018). Agonism of the 5-HT2B receptor has been associated with unwanted cardiac valvulopathy side-effects, a form of cardio-toxicity (Rothman et al., Circulation. 2000, 102, 2836-2841; Fitzgerald et al., Molecular Pharmacology 2000, 57, 75-81). […] Antagonists of the 5-HT2C receptor are also useful for the treatment of neurological and psychiatric disorders (Kennett et al., Neuropharmacology 1997, 36, 609-620).

5-HT2C receptor = target: T2, 5-HT2C receptor (Homo sapiens, UniProt P28335); assay: Calcium mobilization assay, antagonist format, 5-HT2C receptor; type: cell-based; parameters: dose or concentration left out as unconfirmed
T2 construct: host or cells: unnamed cell lines
T2 sequence (P28335 33-458): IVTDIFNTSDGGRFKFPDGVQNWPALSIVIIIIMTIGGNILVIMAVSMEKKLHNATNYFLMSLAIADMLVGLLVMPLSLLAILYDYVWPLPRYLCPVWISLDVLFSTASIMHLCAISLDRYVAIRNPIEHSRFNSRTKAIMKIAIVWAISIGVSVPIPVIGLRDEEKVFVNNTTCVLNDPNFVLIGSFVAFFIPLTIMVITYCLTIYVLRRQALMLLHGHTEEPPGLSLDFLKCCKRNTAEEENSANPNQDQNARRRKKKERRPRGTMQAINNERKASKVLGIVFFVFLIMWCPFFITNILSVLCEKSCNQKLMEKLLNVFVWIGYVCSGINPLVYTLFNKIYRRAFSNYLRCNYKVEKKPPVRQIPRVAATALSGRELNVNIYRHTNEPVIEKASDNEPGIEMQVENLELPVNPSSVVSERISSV
Protocol: as §1, §2, §3
• 1. For antagonist determination, cells were pre-incubated with sample followed by agonist challenge at the EC80 concentration. • 2. Intermediate dilution of sample stocks was performed to generate 3× sample in assay buffer. • 3. After dye loading, cells were removed from the incubator and […] 3× sample was added. Cells were incubated for 30 minutes at room temperature in the dark to equilibrate plate temperature. Vehicle concentration was 1%. • 4. Compound antagonist activity was measured on a FLIPR Tetra (MDS). Calcium mobilization was monitored for 2 minutes and 10 μL EC80 agonist in HBSS/20 mM Hepes was added to the cells 5 seconds into the assay.
as §5, §6

5-HT2A receptor = target: T3, 5-HT2A receptor (Homo sapiens, UniProt P28223); assay: Calcium mobilization assay, agonist format, 5-HT2A receptor; type: cell-based; conditions: read-out: 5-HT2A agonist Efficacy @ 10 µM
T3 construct: host or cells: unnamed cell lines
T3 sequence (P28223 whole entry): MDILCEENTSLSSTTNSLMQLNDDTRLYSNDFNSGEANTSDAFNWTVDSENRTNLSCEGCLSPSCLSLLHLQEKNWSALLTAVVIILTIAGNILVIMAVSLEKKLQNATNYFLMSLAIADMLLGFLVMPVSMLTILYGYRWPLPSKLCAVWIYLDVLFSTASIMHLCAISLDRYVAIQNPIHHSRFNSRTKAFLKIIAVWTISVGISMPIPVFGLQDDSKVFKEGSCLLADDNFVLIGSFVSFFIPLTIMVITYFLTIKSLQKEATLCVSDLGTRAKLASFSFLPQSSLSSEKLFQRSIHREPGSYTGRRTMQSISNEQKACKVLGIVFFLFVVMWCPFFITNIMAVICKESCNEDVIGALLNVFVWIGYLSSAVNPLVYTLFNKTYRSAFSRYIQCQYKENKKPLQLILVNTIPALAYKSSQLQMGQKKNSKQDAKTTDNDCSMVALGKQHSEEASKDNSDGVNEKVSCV
Protocol: as §1, §2, §3, §4, §5, §6

[1] = Metabolic stability in human liver microsomes; type: in vitro ADME; conditions: values marked * average of two experiments; for CLint scaled at 0.2 μM: pH 7.4, scaled from CLint(mic)
Protocol: Microsomal Assay: Human liver microsomes (20 mg/mL) are obtained from Xenotech, LLC (Lenexa, KS). β-nicotinamide adenine dinucleotide phosphate, reduced form (NADPH), magnesium chloride (MgCl2), and dimethyl sulfoxide (DMSO) are purchased from Sigma-Aldrich.
Determination of Metabolic Stability: 7.5 mM stock solutions of test compounds of the above structural formula (e.g., of an embodiment or aspect of embodiment thereof described herein), or pharmaceutically acceptable salt thereof, are prepared in DMSO. […] The diluted microsomes are added to wells of a 96-well deep-well polypropylene plate in triplicate. […] Reactions are initiated by addition of pre-warmed NADPH solution. The final reaction volume is 0.5 mL and contains 4.0 mg/mL human liver microsomes, 0.2 μM test compound, and 2 mM NADPH in 0.1 M potassium phosphate buffer, pH 7.4, and 3 mM MgCl2. The reaction mixtures are incubated at 37° C., and […] aliquots are removed at 0, 5, 10, 20, and 30 minutes and added to shallow-well 96-well plates which contain […] of ice-cold ACN (acetonitrile) with internal standard to stop the reactions. The plates are stored at 4° C. for 20 minutes after which […] of water is added to the wells of the plate before centrifugation to pellet precipitated proteins. Supernatants are transferred to another 96-well plate and analyzed for amounts of parent remaining by LC-MS/MS using an Applied Bio-systems API 4000 mass spectrometer. The same procedure is followed for the non-deuterated counterpart of the compound and the positive control, 7-ethoxycoumarin (1 μM). Testing is done in triplicate.
Data analysis: The in vitro Ti/s for test compounds are calculated from the slopes of the linear regression of % parent remaining (In) vs incubation time relationship.
[formula] • k=−[slope of linear regression of % parent remaining (In) vs incubation time] • The apparent intrinsic clearance is calculated using the following equation: […]
Data analysis is performed using Microsoft Excel Software.

T1 sequence (P41595 whole entry): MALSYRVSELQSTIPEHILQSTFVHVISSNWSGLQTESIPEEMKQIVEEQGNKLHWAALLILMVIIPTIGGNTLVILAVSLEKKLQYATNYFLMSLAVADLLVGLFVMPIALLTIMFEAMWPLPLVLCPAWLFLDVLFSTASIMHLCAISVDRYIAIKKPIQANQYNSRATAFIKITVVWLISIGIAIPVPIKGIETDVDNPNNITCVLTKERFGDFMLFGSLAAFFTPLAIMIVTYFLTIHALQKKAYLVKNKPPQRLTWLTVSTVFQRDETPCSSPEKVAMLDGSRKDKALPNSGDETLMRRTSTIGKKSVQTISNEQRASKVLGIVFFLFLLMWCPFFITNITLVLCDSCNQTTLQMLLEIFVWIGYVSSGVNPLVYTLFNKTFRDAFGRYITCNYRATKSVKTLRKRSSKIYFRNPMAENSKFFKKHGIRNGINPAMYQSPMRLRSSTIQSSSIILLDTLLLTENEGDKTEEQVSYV

CN1CCc2[nH]c3cc(S(F)(F)(F)(F)F)ccc3c2CC1 [Compound 109, pentafluoro-(3-methyl-2,4,5,6-tetrahydro-1H-azepino[4,5-b]indol-8-yl)-λ^6-sulfane]
activation at 5 µM (5-HT2B receptor): 8.5%
inhibition (5-HT2C receptor): 101%
activation at 10 µM (5-HT2A receptor): 13.7%

CN1CCc2[nH]c3cccc(S(F)(F)(F)(F)F)c3c2CC1 [Compound 110, pentafluoro-(3-methyl-2,4,5,6-tetrahydro-1H-azepino[4,5-b]indol-10-yl)-λ^6-sulfane]
activation at 5 µM (5-HT2B receptor): 4%
inhibition (5-HT2C receptor): 103%
activation at 10 µM (5-HT2A receptor): 8.9%

CN1CCc2[nH]c3cc(OC4CC4)ccc3c2CC1 [Compound 117, 8-(cyclopropoxy)-3-methyl-2,4,5,6-tetrahydro-1H-azepino[4,5-b]indole]
activation at 5 µM (5-HT2B receptor): 1.7%
inhibition (5-HT2C receptor): 99.7%
activation at 10 µM (5-HT2A receptor): 10.4%

CN1CCc2[nH]c3c4c(ccc3c2CC1)OCCC4 [Compound 122, 9-methyl-2,3,7,8,9,10,11,12-octahydro-1H-azepino[4,5-b]pyrano[2,3-g]indole]
activation at 5 µM (5-HT2B receptor): -0.8%
inhibition (5-HT2C receptor): 98.9%
activation at 10 µM (5-HT2A receptor): 54%

CN1CCc2[nH]c3c4c(ccc3c2CC1)OCC4 [Compound 124, 8-methyl-1,2,6,7,8,9,10,11-octahydroazepino[4,5-b]furo[2,3-g]indole]
activation at 5 µM (5-HT2B receptor): -0.7%
inhibition (5-HT2C receptor): 93.1%
activation at 10 µM (5-HT2A receptor): 83.8%

CN1CCc2[nH]c3cc(C#N)ccc3c2CC1 [Compound 136, 3-methyl-2,4,5,6-tetrahydro-1H-azepino[4,5-b]indole-8-carbonitrile]
activation at 5 µM (5-HT2B receptor): -1%
inhibition (5-HT2C receptor): 98.6%
activation at 10 µM (5-HT2A receptor): 41.8%

CN1CCc2[nH]c3cccc(C#N)c3c2CC1 [Compound 138, 3-methyl-2,4,5,6-tetrahydro-1H-azepino[4,5-b]indole-10-carbonitrile]
activation at 5 µM (5-HT2B receptor): -0.4%
inhibition (5-HT2C receptor): 100%
activation at 10 µM (5-HT2A receptor): 15.4%

COc1ccc2c3c([nH]c2c1)CCN(CCO)CC3 [Compound 140, 2-(8-methoxy-2,4,5,6-tetrahydro-1H-azepino[4,5-b]indol-3-yl)ethanol]
activation at 5 µM (5-HT2B receptor): -0.9%
inhibition (5-HT2C receptor): 93.8%
activation at 10 µM (5-HT2A receptor): 48.1%

COc1ccc2c3c([nH]c2c1)CCN(CCS(C)(=O)=O)CC3 [Compound 143, 8-methoxy-3-(2-methylsulfonylethyl)-2,4,5,6-tetrahydro-1H-azepino[4,5-b]indole]
activation at 5 µM (5-HT2B receptor): -0.1%
inhibition (5-HT2C receptor): 97.2%
activation at 10 µM (5-HT2A receptor): 42.1%

COc1ccc2c3c([nH]c2c1)CCN(CCN(C)C)CC3 [Compound 144, 2-(8-methoxy-2,4,5,6-tetrahydro-1H-azepino[4,5-b]indol-3-yl)-N,N-dimethyl-ethanamine]
activation at 5 µM (5-HT2B receptor): -0.5%
inhibition (5-HT2C receptor): 3.1%
activation at 10 µM (5-HT2A receptor): -0.7%

[2H]C([2H])([2H])N1CCc2[nH]c3cc(OC4CC4)ccc3c2CC1 [Compound 145, 8-cyclopropoxy-3-(^2H3)methyl-1H,2H,3H,4H,5H,6H-azepino[4,5-b]indole]
activation at 5 µM (5-HT2B receptor): 1.5%
inhibition (5-HT2C receptor): 101%
activation at 10 µM (5-HT2A receptor): 5.8%

[2H]C([2H])([2H])Oc1ccc2c3c([nH]c2c1)CCN(C1CC1)CC3 [Compound 146, 3-cyclopropyl-8-(trideuteriomethoxy)-2,4,5,6-tetrahydro-1H-azepino[4,5-b]indole]
activation at 5 µM (5-HT2B receptor): 9%
inhibition (5-HT2C receptor): 103%
activation at 10 µM (5-HT2A receptor): 69.4%

O=C(O)Cc1ccccc1Nc1c(Cl)cccc1Cl [Diclofenac, reference compound]
CLint(mic) ([1]; intrinsic clearance): 201.9* μL/min/mg
CLint scaled at 0.2 μM [1]: 182 mL/min/kg

Cc1cc2c(cc1Cl)N(C(=O)Nc1ccc(Oc3cccnc3C)nc1)CC2 [SB242084, reference compound]
inhibition (5-HT2C receptor): 101%

C[C@]12CC[C@H]3[C@@H](CCC4=CC(=O)CC[C@@]43C)[C@@H]1CC[C@@H]2O [Testosterone, reference compound]
microsomal CLint at 0.2 μM ([1]; pH 7.4, intrinsic clearance, read-out: CLint(mic)): 114 µL/min/mg
CLint scaled at 0.2 μM [1]: 103 mL/min/kg
